Where two headings read alike, the source gives them in different places.
Target: T1, HCV helicase (helicase domain of NS3 protein) (UniProt P27958)
T1 construct: The helicase domain of NS3 protein was expressed in a baculovirus system in HF insect cell line; fused on or other part: Histidine tag, inferred from the Talon cobalt column purification ('histidine repetitions')
Test: Fluorometric (FRET) antihelicase activity assay
Format: biochemical, hepatitis C virus (HCV)
Conditions: concentration inhibiting 50% of helicase activity, 10 nM enzyme pre-incubated 15 min with derivative, unwinding at 30° C. for 60 min
Excerpt: A reaction takes place on a 96- or 384-well microtitration plate and a course of the reaction is observed in real time.
The helicase domain of NS3 protein was expressed in a baculovirus system in HF insect cell line.
In this assay, FAM fluorescence is quenched by fluorescence energy transfer (FRET) to the BHQ molecule, while unwinding of double-stranded DNA structure leads to decrease of FRET phenomenon and increase of FAM fluorescence signal. The assay allows for examining a large number of samples, i.e., different helicase inhibitors at various concentrations and with many repetitions, in standardized conditions. The reaction is conducted in a microtitration plate. The reaction process is observed in real time.
The enzyme (10 nM) was pre-incubated with the tested derivatives dissolved in DMSO (0.005 to 20 μM concentration) without ATP for 15 min at room temperature. The reaction of DNA unwinding was started by addition of ATP and was carried out at 30° C. for 60 min in a Synergy HTi (Biotek) fluorometer. […] Fluorescence was measured every 2 mins.
The enzyme activity was calculated as the initial reaction velocity from the linear part of reaction curve (fluorescence growth as a function of time) using a linear regression method. Inhibition was calculated as comparison of activity of the helicase incubated with inhibitor to activity of the helicase incubated without inhibitor, but with a proper concentration of DMSO, expressed in percent.

T1 sequence (P27958 1027-1657): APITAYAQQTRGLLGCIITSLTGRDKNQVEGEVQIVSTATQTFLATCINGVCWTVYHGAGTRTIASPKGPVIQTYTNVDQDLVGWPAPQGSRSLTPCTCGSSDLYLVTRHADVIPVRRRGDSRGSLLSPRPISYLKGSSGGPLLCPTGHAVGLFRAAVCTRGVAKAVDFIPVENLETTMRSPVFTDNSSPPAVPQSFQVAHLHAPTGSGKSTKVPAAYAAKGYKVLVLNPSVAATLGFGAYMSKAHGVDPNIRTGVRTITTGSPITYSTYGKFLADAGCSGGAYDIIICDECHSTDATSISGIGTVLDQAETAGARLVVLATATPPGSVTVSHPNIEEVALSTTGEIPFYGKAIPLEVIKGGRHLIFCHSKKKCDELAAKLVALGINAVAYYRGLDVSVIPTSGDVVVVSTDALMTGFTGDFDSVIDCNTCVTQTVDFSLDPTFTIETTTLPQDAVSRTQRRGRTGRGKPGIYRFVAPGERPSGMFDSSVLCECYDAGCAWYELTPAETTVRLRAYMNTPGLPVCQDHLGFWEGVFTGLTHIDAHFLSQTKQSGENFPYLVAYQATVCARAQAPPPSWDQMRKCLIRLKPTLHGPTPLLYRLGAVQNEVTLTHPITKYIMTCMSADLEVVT

Structure (SMILES)	IC50 (read-out: IC50) [nM]	IC50 [nM]
COc1cccc2c1C(=O)c1c(O)c3c(c(O)c1C2=O)CC(O)(C(C)=O)CC3OC1CC(N=CN2CCCC2)C(O)C(C)O1 (stereo not shown) [Derivative 1]	1840	–
COc1cccc2c1C(=O)c1c(O)c3c(c(O)c1C2=O)CC(O)(C(C)=O)CC3OC1CC(N=CN2CCOCC2)C(O)C(C)O1 (stereo not shown) [Derivative 3]	3170	–
COc1cccc2c1C(=O)c1c(O)c3c(c(O)c1C2=O)CC(O)(C(C)=O)CC3OC1CC(N=CN2CCCCC2)C(O)C(C)O1 (stereo not shown) [Derivative 5]	3500	–
COc1cccc2c1C(=O)c1c(O)c3c(c(O)c1C2=O)CC(O)(C(C)=O)CC3OC1CC(N=CN2CCCCCC2)C(O)C(C)O1 (stereo not shown) [Derivative 7]	1330	–
COc1cccc2c1C(=O)c1c(O)c3c(c(O)c1C2=O)CC(O)(C(C)=O)CC3OC1CC(N=CN2CCN(C)CC2)C(O)C(C)O1 (stereo not shown) [Derivative 8]	1960	–
CCN(C=NC1CC(OC2CC(O)(C(C)=O)Cc3c(O)c4c(c(O)c32)C(=O)c2c(OC)cccc2C4=O)OC(C)C1O)CC (stereo not shown) [Derivative 12]	1580	–
COc1cccc2c1C(=O)c1c(O)c3c(c(O)c1C2=O)CC(O)(C(C)=O)CC3OC1CC(N=C(C)N2CCCC2)C(O)C(C)O1 (stereo not shown) [Derivative 18]	410	–
COc1cccc2c1C(=O)c1c(O)c3c(c(O)c1C2=O)CC(O)(C(C)=O)CC3OC1CC(N=C(C)N2CCCCC2)C(O)C(C)O1 (stereo not shown) [Derivative 22]	700	–
COc1cccc2c1C(=O)c1c(O)c3c(c(O)c1C2=O)CC(O)(C(C)=O)CC3OC1CC(N=C(C)N2CCN(C)CC2)C(O)C(C)O1 (stereo not shown) [Derivative 25]	6250	–
COc1cccc2c1C(=O)c1c(O)c3c(c(O)c1C2=O)CC(O)(C(C)=O)CC3OC1CC(N=C(C)N2CCc3ccccc32)C(O)C(C)O1 (stereo not shown) [Derivative 27]	11300	–
COc1cccc2c1C(=O)c1c(O)c3c(c(O)c1C2=O)CC(O)(C(=O)CO)CC3OC1CC(N=CN2CCCC2)C(O)C(C)O1 (stereo not shown) [Derivative 35]	550	–
COc1cccc2c1C(=O)c1c(O)c3c(c(O)c1C2=O)CC(O)(C(=O)CO)CC3OC1CC(N=CN2CCOCC2)C(O)C(C)O1 (stereo not shown) [Derivative 37]	2120	–
COc1cccc2c1C(=O)c1c(O)c3c(c(O)c1C2=O)CC(O)(C(=O)CO)CC3OC1CC(N=CN2CCCCC2)C(O)C(C)O1 (stereo not shown) [Derivative 39]	2840	–
COc1cccc2c1C(=O)c1c(O)c3c(c(O)c1C2=O)CC(O)(C(=O)CO)CC3OC1CC(N=CN2CCCCCC2)C(O)C(C)O1 (stereo not shown) [Derivative 41]	1610	–
COc1cccc2c1C(=O)c1c(O)c3c(c(O)c1C2=O)CC(O)(C(=O)CO)CC3OC1CC(N=CN2CCN(C)CC2)C(O)C(C)O1 (stereo not shown) [Derivative 42]	980	–
CCN(C=NC1CC(OC2CC(O)(C(=O)CO)Cc3c(O)c4c(c(O)c32)C(=O)c2c(OC)cccc2C4=O)OC(C)C1O)CC (stereo not shown) [Derivative 46]	1320	–
COc1cccc2c1C(=O)c1c(O)c3c(c(O)c1C2=O)CC(O)(C(=O)CO)CC3OC1CC(N=C(C)N2CCCC2)C(O)C(C)O1 (stereo not shown) [Derivative 52]	500	–
COc1cccc2c1C(=O)c1c(O)c3c(c(O)c1C2=O)CC(O)(C(=O)CO)CC3OC1CC(N=C(C)N2CCCCC2)C(O)C(C)O1 (stereo not shown) [Derivative 56]	3350	–
COc1cccc2c1C(=O)c1c(O)c3c(c(O)c1C2=O)CC(O)(C(=O)CO)CC3OC1CC(N=C(C)N2CCN(C)CC2)C(O)C(C)O1 (stereo not shown) [Derivative 59]	420	–
COc1cccc2c1C(=O)c1c(O)c3c(c(O)c1C2=O)CC(O)(C(C)=O)CC3OC1CC(N=CN2CCCC2)C(O)C(C)O1 (stereo not shown) [Derivative 69]	1080	–
COc1cccc2c1C(=O)c1c(O)c3c(c(O)c1C2=O)CC(O)(C(C)=O)CC3OC1CC(N=CN2CCOCC2)C(O)C(C)O1 (stereo not shown) [Derivative 71]	3130	–
COc1cccc2c1C(=O)c1c(O)c3c(c(O)c1C2=O)CC(O)(C(C)=O)CC3OC1CC(N=CN2CCCCC2)C(O)C(C)O1 (stereo not shown) [Derivative 73]	2390	–
COc1cccc2c1C(=O)c1c(O)c3c(c(O)c1C2=O)CC(O)(C(C)=O)CC3OC1CC(N=CN2CCN(C)CC2)C(O)C(C)O1 (stereo not shown) [Derivative 76]	760 ± 210	770

Structure (SMILES)	IC50 (read-out: IC50) [nM]	IC50 [nM]
COc1cccc2c1C(=O)c1c(O)c3c(c(O)c1C2=O)CC(O)(C(C)=O)CC3OC1CC(N=CN2CCN(C)CC2)C(O)C(C)O1 (stereo not shown) [Derivative 77]	780 ± 180	–
COc1cccc2c1C(=O)c1c(O)c3c(c(O)c1C2=O)CC(O)(C(C)=O)CC3OC1CC(N=CN2CCc3ccccc32)C(O)C(C)O1 (stereo not shown) [Derivative 78]	450	–
CCN(C=NC1CC(OC2CC(O)(C(C)=O)Cc3c(O)c4c(c(O)c32)C(=O)c2c(OC)cccc2C4=O)OC(C)C1O)CC (stereo not shown) [Derivative 80]	300	–
CCCCN(C=NC1CC(OC2CC(O)(C(C)=O)Cc3c(O)c4c(c(O)c32)C(=O)c2c(OC)cccc2C4=O)OC(C)C1O)CCCC (stereo not shown) [Derivative 84]	2050	–
COc1cccc2c1C(=O)c1c(O)c3c(c(O)c1C2=O)CC(O)(C(C)=O)CC3OC1CC(N=C(C)N2CCOCC2)C(O)C(C)O1 (stereo not shown) [Derivative 89]	50	–
COc1cccc2c1C(=O)c1c(O)c3c(c(O)c1C2=O)CC(O)(C(C)=O)CC3OC1CC(N=C(C)N2CCCCC2)C(O)C(C)O1 (stereo not shown) [Derivative 91]	30	–
COc1cccc2c1C(=O)c1c(O)c3c(c(O)c1C2=O)CC(O)(C(C)=O)CC3OC1CC(N=C(C)N2CCCCCC2)C(O)C(C)O1 (stereo not shown) [Derivative 93]	990	–
COc1cccc2c1C(=O)c1c(O)c3c(c(O)c1C2=O)CC(O)(C(C)=O)CC3OC1CC(N=C(C)N2CCN(C)CC2)C(O)C(C)O1 (stereo not shown) [Derivative 95]	90 ± 10	–
CCN(CC)C(C)=NC1CC(OC2CC(O)(C(C)=O)Cc3c(O)c4c(c(O)c32)C(=O)c2c(OC)cccc2C4=O)OC(C)C1O (stereo not shown) [Derivative 98]	180	–
CCCN(CCC)C(C)=NC1CC(OC2CC(O)(C(C)=O)Cc3c(O)c4c(c(O)c32)C(=O)c2c(OC)cccc2C4=O)OC(C)C1O (stereo not shown) [Derivative 100]	1900	–
COc1cccc2c1C(=O)c1c(O)c3c(c(O)c1C2=O)CC(O)(C(=O)CO)CC3OC1CC(N=CN2CCOCC2)C(O)C(C)O1 (stereo not shown) [Derivative 107]	970	–
COc1cccc2c1C(=O)c1c(O)c3c(c(O)c1C2=O)CC(O)(C(=O)CO)CC3OC1CC(N=CN2CCCCC2)C(O)C(C)O1 (stereo not shown) [Derivative 109]	760	–
COc1cccc2c1C(=O)c1c(O)c3c(c(O)c1C2=O)CC(O)(C(=O)CO)CC3OC1CC(N=CN2CCCCCC2)C(O)C(C)O1 (stereo not shown) [Derivative 111]	1720	–
COc1cccc2c1C(=O)c1c(O)c3c(c(O)c1C2=O)CC(O)(C(=O)CO)CC3OC1CC(N=CN2CCN(C)CC2)C(O)C(C)O1 (stereo not shown) [Derivative 112]	1530	–
COc1cccc2c1C(=O)c1c(O)c3c(c(O)c1C2=O)CC(O)(C(=O)CO)CC3OC1CC(N=CN2CCc3ccccc32)C(O)C(C)O1 (stereo not shown) [Derivative 114]	140	–
CCN(C=NC1CC(OC2CC(O)(C(=O)CO)Cc3c(O)c4c(c(O)c32)C(=O)c2c(OC)cccc2C4=O)OC(C)C1O)CC (stereo not shown) [Derivative 116]	2170	–
CCCN(C=NC1CC(OC2CC(O)(C(=O)CO)Cc3c(O)c4c(c(O)c32)C(=O)c2c(OC)cccc2C4=O)OC(C)C1O)CCC (stereo not shown) [Derivative 118]	2210	–
COc1cccc2c1C(=O)c1c(O)c3c(c(O)c1C2=O)CC(O)(C(=O)CO)CC3OC1CC(N=CN(C)C(C)c2ccccc2)C(O)C(C)O1 (stereo not shown) [Derivative 122]	2530	–
COc1cccc2c1C(=O)c1c(O)c3c(c(O)c1C2=O)CC(O)(C(=O)CO)CC3OC1CC(N=C(C)N2CCCC2)C(O)C(C)O1 (stereo not shown) [Derivative 123]	310	–
COc1cccc2c1C(=O)c1c(O)c3c(c(O)c1C2=O)CC(O)(C(=O)CO)CC3OC1CC(N=C(C)N2CCCCC2)C(O)C(C)O1 (stereo not shown) [Derivative 127]	220	–
COc1cccc2c1C(=O)c1c(O)c3c(c(O)c1C2=O)CC(O)(C(=O)CO)CC3OC1CC(N=C(C)N2CCN(C)CC2)C(O)C(C)O1 (stereo not shown) [Derivative 131]	130	–
CCN(CC)C(C)=NC1CC(OC2CC(O)(C(=O)CO)Cc3c(O)c4c(c(O)c32)C(=O)c2c(OC)cccc2C4=O)OC(C)C1O (stereo not shown) [Derivative 135]	1240	–

— patent US20090298786A1, “METHODS OF TREATING VIRAL INFECTIONS WITH ANTHRACYCLINE ANTIBIOTICS” (priority 2007, published 2009)
